Experimental data from PubChem BioAssay (NCI).
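1) Cells in 96-well plates. 2) Compound, 48 h, 5 concentrations. 3) Linear interpolation between surrounding doses. 4) Unreached endpoint = highest concentration. GI50 marks 50% less growth. At the TGI there is no net growth.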

Tests used:
Test in all cases: DTP human tumour cell line panel, 48 h
COLO 205 colon = tested on: COLO 205 colon
HCT-116 colon = tested on: HCT-116 colon
NCI-H460 lung = tested on: NCI-H460 lung
OVCAR-4 ovarian = tested on: OVCAR-4 ovarian
OVCAR-5 ovarian = tested on: OVCAR-5 ovarian
RXF 393 renal = tested on: RXF 393 renal
SR leukemia = tested on: SR leukemia
ACHN renal = tested on: ACHN renal
NCI-H23 lung = tested on: NCI-H23 lung
TK-10 renal = tested on: TK-10 renal

| SMILES | TGI (COLO 205 colon) | TGI (HCT-116 colon) | TGI (NCI-H460 lung) | TGI (OVCAR-4 ovarian) | TGI (OVCAR-5 ovarian) | TGI (RXF 393 renal) | TGI (SR leukemia) | TGI (ACHN renal) | TGI (NCI-H23 lung) | TGI (TK-10 renal) | GI50 (ACHN renal) | GI50 (COLO 205 colon) | GI50 (HCT-116 colon) | GI50 (NCI-H23 lung) | GI50 (NCI-H460 lung) | GI50 (OVCAR-4 ovarian) | GI50 (OVCAR-5 ovarian) | GI50 (RXF 393 renal) | GI50 (SR leukemia) | GI50 (TK-10 renal) |
| --- | --- | --- | --- | --- | --- | --- | --- | --- | --- | --- | --- | --- | --- | --- | --- | --- | --- | --- | --- | --- |
| Nc1ncc(/C=N/O)c(NCC2(CO)CC(CCc3ccccc3)C2)n1 (stereo not drawn) | 27.2 µM | 18 µM | 22.1 µM | 48.5 µM | 44.1 µM | 29 µM | > 100 µM |  |  |  |  |  |  |  |  |  |  |  |  |  |
| Cc1c2cccc-2ccc2c1[nH]c1ccccc12 | 3.68 µM | 4.96 µM | 3.57 µM | 5.09 µM | 4.77 µM | 9.42 µM | 18.9 µM | 3.2 µM | 8.99 µM | 4.92 µM |  |  |  |  |  |  |  |  |  |  |
| CC1(C)[C@@H]2CC[C@@]1(C)[C@H](O)[C@@H]2SCc1ccccc1 | 34.1 µM | 44.4 µM | 39.9 µM | 26.6 µM | 33.1 µM | 33 µM | > 100 µM | 24 µM | 29.1 µM | 57.8 µM |  |  |  |  |  |  |  |  |  |  |
| COC(=O)C(NC(=O)CSc1nnc(COc2ccc(Cl)cc2)n1-c1ccccc1)C(C)C (stereo not drawn) | 48.6 µM | 31.4 µM | 99.3 µM | 74.1 µM | 75.9 µM | 57.5 µM | > 100 µM | > 100 µM | 69.3 µM | 36.2 µM |  |  |  |  |  |  |  |  |  |  |
| O=P(O)(O)CN1CCNCCN(CP(=O)(O)O)CCNCC1 | > 100 µM | > 100 µM | 13.1 µM | > 100 µM | > 100 µM | > 100 µM | 4.16 µM | > 100 µM | > 100 µM | > 100 µM |  |  |  |  |  |  |  |  |  |  |
| O=S1(=O)CCN(c2ccccc2CC(c2c[nH]c3ccccc23)c2c[nH]c3ccccc23)CC1 | 8.23 µM | 16.5 µM | 13 µM | > 63.7 µM | 54.9 µM | 28.8 µM | 20.1 µM | > 91.7 µM | 22.6 µM | 19.8 µM |  |  |  |  |  |  |  |  |  |  |
| Cc1cc(=O)[nH]c(NNC(C#N)c2ccc([N+](=O)[O-])cc2)n1 (stereo not drawn) | > 100 µM | > 100 µM | > 100 µM | > 100 µM | > 100 µM | > 100 µM | > 100 µM | > 100 µM | > 100 µM | > 100 µM |  |  |  |  |  |  |  |  |  |  |
| COc1ccc(C=Nc2ccc(-c3nc4ccccc4[nH]3)cc2)cc1OC | > 100 µM | > 100 µM | > 100 µM | > 100 µM | > 100 µM | > 100 µM | > 100 µM | > 100 µM | > 100 µM | > 100 µM |  |  |  |  |  |  |  |  |  |  |
| O=C1C=C(N2CCN(c3ccccn3)CC2)C(=O)c2c(O)ccc(O)c21 | 16 µM | 10.3 µM | 38.1 µM | 28.2 µM | > 46.4 µM | 43.4 µM | > 50.7 µM | > 56.2 µM | 13 µM | 45.7 µM |  |  |  |  |  |  |  |  |  |  |
| O=C1CC2(CCNCC2)C(=O)N1N1CCOCC1 | > 100 µM | > 100 µM | > 100 µM | > 100 µM | > 100 µM | > 100 µM | > 100 µM | > 100 µM | > 100 µM | > 100 µM |  |  |  |  |  |  |  |  |  |  |
| COC(=O)/C=C/c1ccc2c(c1)CC1(Cc3ccccc3C1)C2 | > 100 µM | 1.34 µM |  | > 100 µM | > 100 µM | > 100 µM | 58.1 µM | > 100 µM | > 100 µM | > 100 µM |  |  |  |  |  |  |  |  |  |  |
| CC1(C)COC(c2c(-c3ccccc3)noc2CS(=O)c2ccccc2)=N1 (stereo not drawn) | > 100 µM | > 100 µM | > 100 µM | > 100 µM | > 100 µM | > 100 µM | > 100 µM | > 100 µM | > 100 µM | > 100 µM |  |  |  |  |  |  |  |  |  |  |
| COc1cc(-n2cc(-c3cc(O)c(C/C=C(\C)CCC=C(C)C)c(O)c3)nn2)cc2c1O[C@]1(C)CC[C@@H](O)C(C)(C)[C@H]1C2 | 22.2 µM | 23.5 µM | 14.9 µM | 41.6 µM | 21.5 µM | 0.337 µM | > 100 µM | 26.6 µM | 31.3 µM | > 100 µM | 1.79 µM | 3.76 µM | 1.15 µM | 3.26 µM | 1.13 µM | 3.13 µM | 2.35 µM | 0.0214 µM | 0.0317 µM | 7.97 µM |
| C/C(=N\Nc1ccccc1)C(CN(C)C)C(c1ccccc1)c1c(O)c2ccccc2oc1=O (stereo not drawn) | > 100 µM | > 100 µM | > 100 µM | > 100 µM | > 100 µM | > 100 µM | > 100 µM | > 100 µM | > 100 µM | > 100 µM |  |  |  |  |  |  |  |  |  |  |
| NC(=O)C1=CC2C3C=CC2(O)C(=O)OC3O1 (stereo not drawn) | 16.1 µM | 7.41 µM | 43.2 µM | 13.2 µM | > 64.5 µM | 8.23 µM | 5.48 µM | 15.7 µM | 9.47 µM | 16.7 µM |  |  |  |  |  |  |  |  |  |  |
| CCCNC(=O)CCC(C)[C@H]1CCC2C3C(C[C@H](OC(C)=O)[C@@]21C)[C@@]1(C)CCC2(C[C@H]1C[C@H]3OC(C)=O)OOC1(CCCCC1)OO2 (stereo partly drawn) | 3.64 µM | > 61.5 µM | 6.83 µM | 26.6 µM | 25.8 µM | 27.7 µM | 4.7 µM | 2.62 µM | 3.54 µM | 4.32 µM |  |  |  |  |  |  |  |  |  |  |
| O=C(CSc1nc2ccc(I)cc2c(=O)n1Cc1ccccc1)NN1C(=O)CCC1=O | > 100 µM | > 100 µM | > 100 µM | 75.9 µM | > 100 µM | 62.5 µM | > 100 µM | 34.6 µM | 66.6 µM | > 100 µM |  |  |  |  |  |  |  |  |  |  |
| NC(=S)N/N=C\CC(O)(C(F)(F)F)C(F)(F)F | > 10 µM | > 10 µM | > 10 µM | > 10 µM |  | > 10 µM | > 10 µM | > 10 µM | > 10 µM | > 10 µM |  |  |  |  |  |  |  |  |  |  |
| O=CNNC(=O)Nc1ccc(Cl)cc1 | > 100 µM | > 100 µM |  | > 100 µM | > 100 µM | > 100 µM | > 100 µM | > 100 µM | > 100 µM | > 100 µM |  |  |  |  |  |  |  |  |  |  |
| C/C(=C\Cc1cc(O)ccc1O)CCc1c(C)cc(O)c(C=O)c1C | 33.4 µM | 41 µM | 67.2 µM | > 100 µM |  | 37.1 µM | > 100 µM | 44.3 µM | 70.8 µM | > 100 µM |  |  |  |  |  |  |  |  |  |  |
